From US7342011B2, “Rifamycin analogs and uses thereof” (priority 2003, dated 2008)
≈ marks a conversion by molar mass, not a printed value.

Test system: E. coli
Assay: MIC assay, E. coli
Format: cell-based

Compound | MIC (μg/mL) E. coli [µg/mL]
25-O-deacetyl-5′-[(8aR)octahydropyrrolo[1,2-a]pyrazin-2-yl]benzthiazinorifamycin [Compound 78] | 4
COC1C=COC2(C)Oc3c(C)c(O)c4c(=O)c(c5oc6cc(N7CC8C(C7)C8NC(=O)OCC[Si](C)(C)C)cc(O)c6nc-5c4c3C2=O)NC(=O)C(C)=CC=CC(C)C(O)C(C)C(O)C(C)C(OC(C)=O)C1C [Compound 2, 3′-hydroxy-5′-[6-(2-trimethylsilyl)ethylcarbamyl-(1R,5S)-3-azabicyclo[3.1.0]hex-3-yl]benzoxazinorifamycin] | >8
COC1C=COC2(C)Oc3c(C)c(O)c4c(=O)c(c5oc6cc(N7CC8C(N)C8C7)cc(O)c6nc-5c4c3C2=O)NC(=O)C(C)=CC=CC(C)C(O)C(C)C(O)C(C)C(OC(C)=O)C1C [Compound 4, 3′-hydroxy-5′-[6-amino-(1R,5S)-3-azabicyclo[3.1.0]hex-3-yl]benzoxazinorifamycin] | >8
CO[C@H]1/C=C/O[C@@]2(C)Oc3c(C)c(O)c4c(=O)c(c5oc6cc(N7C[C@@H]8CCCN[C@@H]8C7)cc(O)c6nc-5c4c3C2=O)NC(=O)/C(C)=C\C=C\[C@H](C)[C@H](O)[C@@H](C)[C@@H](O)[C@@H](C)[C@H](OC(C)=O)[C@@H]1C [Compound 5, 3′-hydroxy-5′-[(4aS,7aS)-octahydro-6H-pyrrolo[3,4-b]pyridin-6-yl]benzoxazinorifamycin] | 8 (≈ 8.65 µM)
CO[C@H]1/C=C/O[C@@]2(C)Oc3c(C)c(O)c4c(=O)c(c5oc6cc(N7C[C@@H]8CCCN[C@@H]8C7)cc(O)c6nc-5c4c3C2=O)NC(=O)/C(C)=C\C=C\[C@H](C)[C@H](O)[C@@H](C)[C@@H](O)[C@@H](C)[C@H](O)[C@@H]1C [Compound 7, 25-O-deacetyl-3′-hydroxy-5′-[(4aS,7aS)-octahydro-6H-pyrrolo[3,4-b]pyridin-6-yl]benzoxazinorifamycin] | >8
CO[C@H]1/C=C/O[C@@]2(C)Oc3c(C)c(O)c4c(=O)c(c5oc6cc(N7CCC(N8CCOCC8)CC7)cc(O)c6nc-5c4c3C2=O)NC(=O)/C(C)=C\C=C\[C@H](C)[C@H](O)[C@@H](C)[C@@H](O)[C@@H](C)[C@H](OC(C)=O)[C@@H]1C [Compound 9, 3′-hydroxy-5′-(4-morpholinyl-1-piperidinyl)benzoxazinorifamycin] | 8 (≈ 8.26 µM)
CO[C@H]1/C=C/O[C@@]2(C)Oc3c(C)c(O)c4c(=O)c(c5oc6cc(N7CC8CCC(C7)N8)cc(O)c6nc-5c4c3C2=O)NC(=O)/C(C)=C\C=C\[C@H](C)[C@H](O)[C@@H](C)[C@@H](O)[C@@H](C)[C@H](OC(C)=O)[C@@H]1C [Compound 10, 3′-hydroxy-5′-(3,8-diazabicyclo[3.2.1]octan-3-yl)benzoxazinorifamycin] | >8
CO[C@H]1/C=C/O[C@@]2(C)Oc3c(C)c(O)c4c(=O)c(c5oc6cc(N7CCC(N8CCOCC8)CC7)cc(O)c6nc-5c4c3C2=O)NC(=O)/C(C)=C\C=C\[C@H](C)[C@H](O)[C@@H](C)[C@@H](O)[C@@H](C)[C@H](O)[C@@H]1C [Compound 11, 25-O-deacetyl-3′-hydroxy-5′-(4-morpholinyl-1-piperidinyl)benzoxazinorifamycin] | 4 (≈ 4.31 µM)
CO[C@H]1/C=C/O[C@@]2(C)Oc3c(C)c(O)c4c(=O)c(c5oc6cc(N7C[C@H]8CCCN[C@H]8C7)cc(O)c6nc-5c4c3C2=O)NC(=O)/C(C)=C\C=C\[C@H](C)[C@H](O)[C@@H](C)[C@@H](O)[C@@H](C)[C@H](OC(C)=O)[C@@H]1C [Compound 12, 3′-hydroxy-5′-[(4aR,7aR)-octahydro-6H-pyrrolo[3,4-b]pyridin-6-yl]benzoxazinorifamycin] | 8 (≈ 8.65 µM)
CO[C@H]1/C=C/O[C@@]2(C)Oc3c(C)c(O)c4c(=O)c(c5oc6cc(N7CCC(NC(=O)OCC(C)C)CC7)cc(O)c6nc-5c4c3C2=O)NC(=O)/C(C)=C\C=C\[C@H](C)[C@H](O)[C@@H](C)[C@@H](O)[C@@H](C)[C@H](OC(C)=O)[C@@H]1C [Compound 13] | 4 (≈ 4 µM)
CO[C@H]1/C=C/O[C@@]2(C)Oc3c(C)c(O)c4c(=O)c(c5oc6cc(N7C[C@H]8CCCN[C@H]8C7)cc(O)c6nc-5c4c3C2=O)NC(=O)/C(C)=C\C=C\[C@H](C)[C@H](O)[C@@H](C)[C@@H](O)[C@@H](C)[C@H](O)[C@@H]1C [Compound 15, 25-O-deacetyl-3′-hydroxy-5′-[(4aR,7aR)-octahydro-6H-pyrrolo[3,4-b]pyridin-6-yl]benzoxazinorifamycin] | >8
CO[C@H]1/C=C/O[C@@]2(C)Oc3c(C)c(O)c4c(=O)c(c5oc6cc(N7CC8CCC(C7)N8)cc(O)c6nc-5c4c3C2=O)NC(=O)/C(C)=C\C=C\[C@H](C)[C@H](O)[C@@H](C)[C@@H](O)[C@@H](C)[C@H](O)[C@@H]1C [Compound 16, 25-O-deacetyl-3′-hydroxy-5′-(3,8-diazabicyclo[3.2.1]octan-3-yl)benzoxazinorifamycin] | 4 (≈ 4.6 µM)
CO[C@H]1/C=C/O[C@@]2(C)Oc3c(C)c(O)c4c(=O)c(c5oc6cc(N7CCC(N(C)C)CC7)cc(O)c6nc-5c4c3C2=O)NC(=O)/C(C)=C\C=C\[C@H](C)[C@H](O)[C@@H](C)[C@@H](O)[C@@H](C)[C@H](OC(C)=O)[C@@H]1C [Compound 17, 3′-hydroxy-5′-(4-N,N-dimethylamino-1-piperidinyl)benzoxazinorifamycin] | 8 (≈ 8.63 µM)
CO[C@H]1/C=C/O[C@@]2(C)Oc3c(C)c(O)c4c(=O)c(c5oc6cc(N7CCC(N(C)C)CC7)cc(O)c6nc-5c4c3C2=O)NC(=O)/C(C)=C\C=C\[C@H](C)[C@H](O)[C@@H](C)[C@@H](O)[C@@H](C)[C@H](O)[C@@H]1C [Compound 18, 25-O-deacetyl-3′-hydroxy-5′-(4-N,N dimethylamino-1-piperidinyl)benzoxazinorifamycin] | 4 (≈ 4.52 µM)
COC1C=COC2(C)Oc3c(C)c(O)c4c(=O)c(c5oc6cc(N7CC8C(N)C8C7)cc(O)c6nc-5c4c3C2=O)NC(=O)C(C)=CC=CC(C)C(O)C(C)C(O)C(C)C(O)C1C [Compound 20, 25-O-deacetyl-3′-hydroxy-5′-[6-amino-(1R,5S)-3-azabicyclo[3.1.0]hex-3-yl]benzoxazinorifamycin] | >8
CCOC(=O)NC1C2CN(c3cc(O)c4nc5c6c7c8c(C)c(O)c6c(=O)c(c-5oc4c3)NC(=O)C(C)=CC=CC(C)C(O)C(C)C(O)C(C)C(OC(C)=O)C(C)C(OC)C=COC(C)(O8)C7=O)CC21 (centres unmarked) [Compound 21] | 4 (≈ 4.13 µM)
CO[C@H]1/C=C/O[C@@]2(C)Oc3c(C)c(O)c4c(=O)c(c5oc6cc(N7CCC(NC(=O)OC(C)C)CC7)cc(O)c6nc-5c4c3C2=O)NC(=O)/C(C)=C\C=C\[C@H](C)[C@H](O)[C@@H](C)[C@@H](O)[C@@H](C)[C@H](OC(C)=O)[C@@H]1C [Compound 22] | >8
CO[C@H]1/C=C/O[C@@]2(C)Oc3c(C)c(O)c4c(=O)c(c5oc6cc(N7CCC(NS(=O)(=O)C(F)(F)F)CC7)cc(O)c6nc-5c4c3C2=O)NC(=O)/C(C)=C\C=C\[C@H](C)[C@H](O)[C@@H](C)[C@@H](O)[C@@H](C)[C@H](OC(C)=O)[C@@H]1C [Compound 23] | >8
CCCC(=O)NC1CCN(c2cc(O)c3nc4c5c6c7c(C)c(O)c5c(=O)c(c-4oc3c2)NC(=O)/C(C)=C\C=C\[C@H](C)[C@H](O)[C@@H](C)[C@@H](O)[C@@H](C)[C@H](OC(C)=O)[C@H](C)[C@@H](OC)/C=C/O[C@@](C)(O7)C6=O)CC1 [Compound 24, 3′-hydroxy-5′-[4-butanamide-1-piperidinyl]benzoxazinorifamycin] | >8
CO[C@H]1/C=C/O[C@@]2(C)Oc3c(C)c(O)c4c(=O)c(c5oc6cc(N7CCC(NS(C)(=O)=O)CC7)cc(O)c6nc-5c4c3C2=O)NC(=O)/C(C)=C\C=C\[C@H](C)[C@H](O)[C@@H](C)[C@@H](O)[C@@H](C)[C@H](OC(C)=O)[C@@H]1C [Compound 25] | >8
CCCNC(=O)NC1CCN(c2cc(O)c3nc4c5c6c7c(C)c(O)c5c(=O)c(c-4oc3c2)NC(=O)/C(C)=C\C=C\[C@H](C)[C@H](O)[C@@H](C)[C@@H](O)[C@@H](C)[C@H](OC(C)=O)[C@H](C)[C@@H](OC)/C=C/O[C@@](C)(O7)C6=O)CC1 [Compound 28, 3′-hydroxy-5′-[4-propyluryl-1-piperidinyl]benzoxazinorifamycin] | >8
COC(=O)NC1CCN(c2cc(O)c3nc4c5c6c7c(C)c(O)c5c(=O)c(c-4oc3c2)NC(=O)/C(C)=C\C=C\[C@H](C)[C@H](O)[C@@H](C)[C@@H](O)[C@@H](C)[C@H](O)[C@H](C)[C@@H](OC)/C=C/O[C@@](C)(O7)C6=O)CC1 [Compound 30, 25-O-deacetyl-3′-hydroxy-5′-[4-methylcarbamyl-1-piperidinyl]benzoxazinorifamycin] | >8
CCOC(=O)NC1CCN(c2ccc3nc4c5c6c7c(C)c(O)c5c(=O)c(c-4n(C)c3c2)NC(=O)/C(C)=C\C=C\[C@H](C)[C@H](O)[C@@H](C)[C@@H](O)[C@@H](C)[C@H](O)[C@H](C)[C@@H](OC)/C=C/O[C@@](C)(O7)C6=O)CC1 [Compound 31] | 8 (≈ 8.64 µM)
CO[C@H]1/C=C/O[C@@]2(C)Oc3c(C)c(O)c4c(=O)c(c5oc6cc(N7CCC(N)CC7)cc(O)c6nc-5c4c3C2=O)NC(=O)/C(C)=C\C=C\[C@H](C)[C@H](O)[C@@H](C)[C@@H](O)[C@@H](C)[C@H](OC(C)=O)[C@@H]1C [Compound 33, 3′-hydroxy-5′-[4-amino-1-piperidinyl]benzoxazinorifamycin] | >8
CCNC(=O)NC1CCN(c2cc(O)c3nc4c5c6c7c(C)c(O)c5c(=O)c(c-4oc3c2)NC(=O)/C(C)=C\C=C\[C@H](C)[C@H](O)[C@@H](C)[C@@H](O)[C@@H](C)[C@H](OC(C)=O)[C@H](C)[C@@H](OC)/C=C/O[C@@](C)(O7)C6=O)CC1 [Compound 34, 3′-hydroxy-5′-[4-ethyluryl-1-piperidinyl]benzoxazinorifamycin] | 8 (≈ 8.25 µM)
CCCC(=O)NC1CCN(c2cc(O)c3nc4c5c6c7c(C)c(O)c5c(=O)c(c-4oc3c2)NC(=O)C(C)=CC=CC(C)C(O)C(C)C(O)C(C)C(O)C(C)C(OC)C=COC(C)(O7)C6=O)CC1 (centres unmarked) [Compound 36, 25-O-deacetyl-3′-hydroxy-5′-[4-butanamide-1-piperidinyl]benzoxazinorifamycin] | >8
